Here are results for five molecules from PMC6930600, “Synthesis of Aryl Propionamide Scaffold Containing a Pentafluorosulfanyl Moiety as SARMs” (Molecules, 2019).

The assay deals with T1, androgen receptor (AR) (Homo sapiens, UniProt P10275).
T1 construct: AR expressed transiently from plasmid pSVAR0 (known as a human full-length AR expression vector)
T1 sequence (P10275 1-920): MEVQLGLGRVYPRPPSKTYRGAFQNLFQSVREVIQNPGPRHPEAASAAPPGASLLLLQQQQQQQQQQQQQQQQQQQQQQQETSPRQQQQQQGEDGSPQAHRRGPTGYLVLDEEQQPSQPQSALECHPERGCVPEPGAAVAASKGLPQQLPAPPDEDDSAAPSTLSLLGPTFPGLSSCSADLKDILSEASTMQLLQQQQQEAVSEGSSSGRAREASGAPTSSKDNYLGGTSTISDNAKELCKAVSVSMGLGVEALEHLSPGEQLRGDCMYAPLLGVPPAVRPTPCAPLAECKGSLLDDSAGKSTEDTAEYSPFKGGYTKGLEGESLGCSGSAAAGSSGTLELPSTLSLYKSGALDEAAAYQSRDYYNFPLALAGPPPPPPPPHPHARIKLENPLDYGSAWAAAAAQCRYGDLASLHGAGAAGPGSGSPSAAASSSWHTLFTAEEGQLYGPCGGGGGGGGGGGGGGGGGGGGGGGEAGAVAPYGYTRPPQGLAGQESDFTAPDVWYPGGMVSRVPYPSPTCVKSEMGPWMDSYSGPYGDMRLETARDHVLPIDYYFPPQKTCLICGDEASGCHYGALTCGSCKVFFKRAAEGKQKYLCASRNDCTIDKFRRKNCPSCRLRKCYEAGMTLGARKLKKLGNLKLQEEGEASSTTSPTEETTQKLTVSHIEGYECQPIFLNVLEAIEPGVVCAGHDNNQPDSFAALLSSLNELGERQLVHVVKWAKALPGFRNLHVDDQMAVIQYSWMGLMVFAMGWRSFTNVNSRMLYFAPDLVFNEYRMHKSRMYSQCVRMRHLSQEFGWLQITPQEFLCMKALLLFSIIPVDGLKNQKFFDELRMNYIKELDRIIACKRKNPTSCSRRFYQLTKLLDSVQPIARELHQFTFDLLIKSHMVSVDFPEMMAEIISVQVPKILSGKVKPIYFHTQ
The assay can be described thus: MMTV-luciferase reporter gene agonist assay, transfected CV-1 cells. It counts as cell-based. To be noted: agonist mode, […] h, […] °C. An excerpt: MMTV-luciferase reporter gene agonist assay, transfected CV-1 cells on androgen receptor (AR)
Background: A reporter such as luciferase makes a cellular process visible.

As for `C[C@](O)(COc1ccc(C#N)cc1)C(=O)Nc1cccc(S(F)(F)(F)(F)F)c1` [12a, (S)-3-(4-cyanophenoxy)-2-hydroxy-2-methyl-N-(3-(pentafluoro-l6-sulfanyl)phenyl)propanamide], where the note is “unreliable”, the “Agonist activity in CV-1 / EC50” value was 1508 ± 429.9 nM.

Consider `C[C@](O)(COc1ccc(F)cc1)C(=O)Nc1cccc(S(F)(F)(F)(F)F)c1` [12b, (S)-3-(4-fluorophenoxy)-2-hydroxy-2-methyl-N-(3-(pentafluoro-l6-sulfanyl)phenyl)propanamide], for which, under “unreliable (above top tested concentration […])”, the “Agonist activity in CV-1 / EC50” value stood at 51213.5 ± 5806.1 nM.

On to `C[C@](O)(COc1ccc(Cl)cc1)C(=O)Nc1cccc(S(F)(F)(F)(F)F)c1` [12c, (S)-3-(4-chlorophenoxy)-2-hydroxy-2-methyl-N-(3-(pentafluoro-l6-sulfanyl)phenyl)propanamide], for which the “Agonist activity in CV-1 / EC50” value (unreliable) is 1282 ± 79.2 nM.

`CCC(=O)c1ccc(OC[C@](C)(O)C(=O)Nc2cccc(S(F)(F)(F)(F)F)c2)cc1` [12f, (S)-2-hydroxy-2-methyl-N-(3-(pentafluoro-l6-sulfanyl)phenyl)-3-(4-propionylphenoxy)propanamide]: the “Agonist activity in CV-1 / EC50” value (unreliable) amounted to 12733.5 ± 2144.7 nM.

`COc1ccc(OC[C@](C)(O)C(=O)Nc2ccc(S(F)(F)(F)(F)F)cc2)c(F)c1` [16g, (S)-3-(2-fluoro-4-methoxyphenoxy)-2-hydroxy-2-methyl-N-(4-(pentafluorosulfanyl)phenyl)propanamide]: the “Agonist activity in CV-1 / EC50” value (unreliable) worked out at 2144.0 ± 694.4 nM.
